# Experimental data reported in article PMC3454511 (The Journal of organic chemistry, 2012).
# Tests used:
# [1] = Bidirectional Caco-2 permeability; format: in vitro ADME; details: human, Caco-2
# [2] = Microsomal stability, human; details: % parent remaining at 1 hour
# Plasma stability, human = details: % parent remaining at 5 h
# [3] = Plasma protein binding by rapid-equilibrium dialysis, human; details: 37 °C for 5 h
# [4] = Plasma protein binding by rapid-equilibrium dialysis, mouse; details: 37 °C for 5 h
# [5] = Microsomal stability, mouse; details: % parent remaining at 1 hour
# physchem = details: thermodynamic from solid
# Plasma stability, mouse = details: % parent remaining at 5 h
# [6] = BBB parallel artificial membrane permeability assay; format: in vitro ADME; details: for Papp: PAMPA
# Caco-2 monolayer = test: Bidirectional Caco-2 permeability; format: in vitro ADME
# [7] = Solubility in PBS and H2O, dry powder, 24 hour timepoint
Papp A→B [1],Papp B→A [1],protein binding human [3],protein binding mouse [4],"solubility at 24 h (physchem; PBS, aqueous buffer)",Structure (SMILES),microsomal stability human [2],"plasma stability human (Plasma stability, human)",microsomal stability mouse [5],"plasma stability mouse (Plasma stability, mouse)",Papp [6],solubility at 24 h (physchem; water),Caco-2 A-B (Caco-2 monolayer; A-B direction),Caco-2 B-A (Caco-2 monolayer; B-A direction),BBB PAMPA ([6]; Pe),solubility H2O ([7]; H2O),solubility PBS ([7]; PBS)
17 ×10⁻⁶ cm/s,20 ×10⁻⁶ cm/s,−4.6 % bound,−2.3 % bound,> 500 µM,"CS(=O)(=O)N1CC(=O)N2[C@H](CO)[C@H](c3ccccc3)[C@@H]2C1 [28c, (6R,7R,8S)-8-(Hydroxymethyl)-4-(methylsulfonyl)-7-phenyl-1,4-diazabicyclo [4.2.0] octan-2-one]",104 % remaining,78 % remaining,100 % remaining,106 % remaining,,,,,,,
59 ×10⁻⁶ cm/s,52 ×10⁻⁶ cm/s,95 % bound,91 % bound,43 µM,"CCCN1[C@@H]2COc3ccccc3[C@@H]2[C@@H]1CNC(=O)c1ccccc1 [32a, N-(((1R,2aS,8bR)-2-Propyl-2,2a,3,8b-tetrahydro-1H-chromeno[3,4-b]azet-1-yl)methyl) benzamide]",0 % remaining,94 % remaining,0 % remaining,102 % remaining,,,,,,,
12 ×10⁻⁶ cm/s,17 ×10⁻⁶ cm/s,,,> 500 µM,"O=C1CNC[C@H]2[C@@H](c3ccccc3)[C@@H](COC(c3ccccc3)(c3ccccc3)c3ccccc3)N12 [28b, (6R,7R,8S)-7-Phenyl-8-((trityloxy)methyl)-1,4-diazabicyclo[4.2.0]octan-2-one]",,,,,,,,,,,
29 ×10⁻⁶ cm/s,35 ×10⁻⁶ cm/s,37 % bound,32 % bound,> 500 µM,"CCCN1[C@H](CO)[C@H](c2ccccc2)C12CN(C(C)=O)C2 [30c, (2S,3S)-1-Propyl-2-hydroxymethyl-3-phenyl-6-acetyl-1,6-diazaspiro[3.3]heptane]",94 % remaining,93 % remaining,89 % remaining,97 % remaining,,,,,,,
33 ×10⁻⁶ cm/s,56 ×10⁻⁶ cm/s,28 % bound,−6.0 % bound,> 500 µM,"CCCN1[C@H](CO)[C@H](c2ccccc2)C12CN(C)C2 [30b, (2S,3S)-1-Propyl-2-hydroxymethyl-3-phenyl-6-methyl-1,6-diazaspiro[3.3]heptane]",99 % remaining,86 % remaining,98 % remaining,106 % remaining,,,,,,,
66 ×10⁻⁶ cm/s,57 ×10⁻⁶ cm/s,37 % bound,37 % bound,453 µM,"CCCN1[C@@H]2COc3ccccc3[C@@H]2[C@@H]1CNS(C)(=O)=O [32b, N-(((1R,2aS,8bR)-2-Propyl-2,2a,3,8b-tetrahydro-1H-chromeno[3,4-b]azet-1-yl)methyl) methanesulfonamide]",73 % remaining,97 % remaining,63 % remaining,105 % remaining,,,,,,,
14 ×10⁻⁶ cm/s,21 ×10⁻⁶ cm/s,1 % bound,5 % bound,494 µM,"CN1CCCCN2[C@H](CO)[C@H](c3ccccc3)[C@@H]2C1 [29c, ((8R,9R,10S)-6-Methyl-9-phenyl-1,6-diazabicyclo[6.2.0]decan-10-yl) methanol]",96 % remaining,82 % remaining,97 % remaining,78 % remaining,9 ×10⁻⁶ cm/s,> 500 µM,,,,,

Structure (SMILES),Papp A→B [1],Papp B→A [1],protein binding human [3],protein binding mouse [4],"solubility at 24 h (physchem; PBS, aqueous buffer)",microsomal stability human [2],"plasma stability human (Plasma stability, human)",microsomal stability mouse [5],"plasma stability mouse (Plasma stability, mouse)",Papp [6],solubility at 24 h (physchem; water),Caco-2 A-B (Caco-2 monolayer; A-B direction),Caco-2 B-A (Caco-2 monolayer; B-A direction),BBB PAMPA ([6]; Pe),solubility H2O ([7]; H2O),solubility PBS ([7]; PBS)
"CCCN1[C@H](CO)[C@H](c2ccccc2)C12CNC2 [30a, (2S,3S)-1-Propyl-2-hydroxymethyl-3-phenyl-1,6-diazaspiro[3.3]heptane]",3 ×10⁻⁶ cm/s,12 ×10⁻⁶ cm/s,,,> 500 µM,95 % remaining,106 % remaining,93 % remaining,108 % remaining,,,,,,,
"CCCN1C2CNCC1C2c1ccccc1 (stereo not drawn) [27a, 7-Phenyl-6-propyl-3,6-diazabicyclo[3.1.1]heptane]",30 ×10⁻⁶ cm/s,22 ×10⁻⁶ cm/s,49 % bound,35 % bound,> 500 µM,94 % remaining,102 % remaining,79 % remaining,103 % remaining,4 ×10⁻⁶ cm/s,> 500 µM,,,,,
"CCCN1C(CO)C2c3ccccc3NCC21 (racemic) [31a, ((±)-2-Propyl-1,2,2a,3,4,8b-hexahydroazeto[2,3-c]quinolin-1-yl) methanol]",,,10 % bound,22 % bound,,85 % remaining,97 % remaining,94 % remaining,108 % remaining,,,43 10^−6 cm.s^−1,29 10^−6 cm.s^−1,31 10^−6 cm s^−1,495 µM,>500 µM
"CCCN1C2CN(Cc3ccc(F)cc3)CC1C2c1ccccc1 (stereo not drawn) [27d, 3-(4-Fluorobenzyl)-7-phenyl-6-propyl-3,6-diazabicyclo[3.1.1]heptane]",14 ×10⁻⁶ cm/s,7 ×10⁻⁶ cm/s,98 % bound,98 % bound,335 µM,55 % remaining,71 % remaining,42 % remaining,90 % remaining,111 ×10⁻⁶ cm/s,346 µM,,,,,
"OC[C@@H]1[C@H](c2ccccc2)[C@@H]2CNCCCCN12 [29b, ((8R,9R,10S)-9-Phenyl-1,6-diazabicyclo[6.2.0]decan-10-yl)methanol]",2 ×10⁻⁶ cm/s,8 ×10⁻⁶ cm/s,8 % bound,9 % bound,> 500 µM,86 % remaining,99 % remaining,89 % remaining,94 % remaining,6 ×10⁻⁶ cm/s,491 µM,,,,,
"CN1CC(=O)N2[C@H](CO)[C@H](c3ccccc3)[C@@H]2C1 [28a, (6R,7R,8S)-8-(Hydroxymethyl)-4-methyl-7-phenyl-1,4-diazabicyclo[4.2.0]octan-2-one]",43 ×10⁻⁶ cm/s,31 ×10⁻⁶ cm/s,,,> 500 µM,112 % remaining,99 % remaining,104 % remaining,116 % remaining,,,,,,,
